Assay results: patent US20260070917A1, “CYCLIN DEPENDENT KINASE DEGRADERS AND METHODS OF USE THEREOF” (Differentiated Therapeutics Inc, priority 2023, published 2026)

What was measured:
Format in all cases: cell-based
[1] = molecular target: T1, CCNE1 (Homo sapiens, UniProt P24864); assay: HiBit Assay Protocol for CCNE1 (HIBIT protein quantification, degradation); conditions: HEK293-CCNE1-Hibit cells, compound treatment for 6 hours
T1 construct: host or cells: HEK293-CCNE1-Hibit
Method in brief: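 HEK293 cells expressing HiBiT-tagged CCNE1 were seeded overnight, then treated 6 h with a 3-fold, 10-point compound dilution series. HiBiT levels were read by lytic LgBiT luminescence and normalised to DMSO-only (high) and medium-only (low) controls. DC50 was derived by curve fitting.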

[2] = molecular target: T2, CDK2 (Homo sapiens, UniProt P24941); assay: HiBit Assay Protocol for CDK2 (HIBIT protein quantification, degradation); conditions: HEK293-CDK2-Hibit cells, compound treatment for 6 hours; for DC50: ABS DC50
T2 construct: host or cells: HEK293-CDK2-Hibit
Method in brief: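 HEK293 cells expressing HiBiT-tagged CDK2 were seeded overnight, then treated 6 h with a 3-fold, 10-point compound dilution series. CDK2 levels were read as luminescence after lytic HiBiT/LgBiT detection, normalised to DMSO-only and medium-only controls, and DC50 derived by curve fitting.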

[3] = molecular target: T3, CDK9 (Homo sapiens, UniProt P50750); assay: HiBit Assay Protocol for CDK9 (HIBIT protein quantification, degradation); conditions: HEK293-CDK9-Hibit cells, compound treatment for 6 hours; for Dmax: 6 h, read-out: CDK9 HIBIT Protein Quantification Maximum; for DC50: ABS DC50
T3 construct: host or cells: HEK293-CDK9-Hibit
T3 sequence (P50750 whole entry): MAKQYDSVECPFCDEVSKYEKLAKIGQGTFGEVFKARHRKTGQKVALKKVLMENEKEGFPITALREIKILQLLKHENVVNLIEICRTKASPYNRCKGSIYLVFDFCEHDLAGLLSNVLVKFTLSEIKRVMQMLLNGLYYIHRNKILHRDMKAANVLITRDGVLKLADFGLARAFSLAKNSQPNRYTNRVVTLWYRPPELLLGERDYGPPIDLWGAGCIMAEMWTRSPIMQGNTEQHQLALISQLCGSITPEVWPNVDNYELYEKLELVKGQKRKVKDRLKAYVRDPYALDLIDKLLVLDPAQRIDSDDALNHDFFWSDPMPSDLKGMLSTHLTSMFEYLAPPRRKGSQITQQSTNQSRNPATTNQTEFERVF
Experimental: HiBit Assay Protocol for CDK9
• 1. The culture medium for HEK293-CDK9-Hibit cell was prepared using DMEM with 10% FBS. • 2. Cells were cultivated in T-75 flasks in a cell culture incubator set at 37° C., 5% CO2, 95% relative humidity. Cells were allowed to reach 80-90% confluence before detaching and splitting. • 3. Cultivated cells were rinsed in T-75 flasks with 5 mL PBS. Aspirated off. Added 1.5 mL trypsin, and incubated the cells at 37° C. for approximately 5 minutes or until the cells detached and floated. • 4. Trypsin was inactivated by adding excess serum containing medium. • 5. Cells were harvested from flask into cell culture medium and then the cell number was counted. HEK293-CDK9-Hibit cells were seeded into 384-well plate (cell density: 1.6×10^5 cells/well/50 uL medium) in DMEM medium according to the plate map below and were incubated overnight at 37° C. and 5% CO2. • Note: Cell Cultured Medium: 90% DMEM+10% FBS+1% Penicillin-Streptomycin Liquid
• 1. Test compounds were dissolved at 3 mM DMSO stock solution. Transferred 45 uL of stock solution to a 384 pp-plate. Perform 3-fold, 10-point dilution via transferring 15 uL compound into 30 uL DMSO by using TECAN liquid handler. • 2. The plates were spinned at room temperature at 1,000 RPM for 1 minute. • 3. Transferred 50 nL of diluted compound from compound source plate into the cell plate by Echo. • 4. After compound treatment for 6 hours, removed the plate from incubators and equilibrated at room temperature for 15 minutes. Prepared the HiBit reagent consists of the following ratios: 10 mL of Nano-Glo®-HiBiT Lytic Buffer, 200 uL of Nano-Glo®-HiBiT Lytic Substrate and 100 uL of LgBiT Protein, mixed thoroughly. Added 20 uL of HiBit reagent into each well and spinned the plates at room temperature at 1,000 RPM for 1 minute to be detected. Plates were then shaken at 600 RPM at room temperature for 20 minutes, and read by EnVision. • 5. The inhibition activity was calculated following the formula below:
[formula] • Note: Where HC was obtained from cells treated with 0.1% DMSO only; LC was obtained from culture medium only. • 6. The ABS DC50 was calculated by fitting the Curve using Xlfit (v5.3.1.3), equation 201: […]

T1 sequence (P24864 whole entry): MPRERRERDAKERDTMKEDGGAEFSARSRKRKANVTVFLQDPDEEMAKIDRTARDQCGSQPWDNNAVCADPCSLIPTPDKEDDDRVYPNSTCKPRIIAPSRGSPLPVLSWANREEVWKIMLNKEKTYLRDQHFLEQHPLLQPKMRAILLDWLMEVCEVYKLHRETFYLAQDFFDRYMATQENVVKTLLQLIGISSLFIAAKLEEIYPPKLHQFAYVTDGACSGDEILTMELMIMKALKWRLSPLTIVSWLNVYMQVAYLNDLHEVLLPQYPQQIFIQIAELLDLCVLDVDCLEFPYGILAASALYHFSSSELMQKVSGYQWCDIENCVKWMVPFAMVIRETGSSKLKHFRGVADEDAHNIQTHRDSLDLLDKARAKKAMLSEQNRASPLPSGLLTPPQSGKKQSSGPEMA

SMILES | CCNE1 HIBIT Protein Quantification Maximum [1] [%] | CDK2 HIBIT Protein Quantification Maximum [2] [%] | Dmax [3] [%] | DC50 [2] [nM] | DC50 [3] [nM]
CC1CCCC1N1C(=O)C2(CC2)c2cnc(NC3CCN(S(=O)(=O)N4CCCN(C(=O)CCCc5cccc6c5n(C)c(=O)n6C5CCC(=O)NC5=O)CC4)CC3)nc21 (centres unmarked) [Compound 33] | 9 | 42 | 4 | – | –
CC1CCCC1N1C(=O)C2(CC2)c2cnc(NC3CCN(S(=O)(=O)N4CC(N(C)C(=O)CCCCCc5cccc6c5n(C)c(=O)n6C5CCC(=O)NC5=O)C4)CC3)nc21 (centres unmarked) [Compound 34] | 44 | 72 | 61 | 6 | 13.6
CC1CCCC1N1C(=O)C2(CC2)c2cnc(NC3CCN(S(=O)(=O)C4CCCN(C(=O)CCCCCc5cccc6c5n(C)c(=O)n6C5CCC(=O)NC5=O)C4)CC3)nc21 (centres unmarked) [Compound 44] | 44 | 39 | 5 | – | –
CC1CCCC1N1C(=O)C2(CC2)c2cnc(NC3CCN(S(=O)(=O)N4CCN(C(=O)CCCCCCCc5cccc6c5n(C)c(=O)n6C5CCC(=O)NC5=O)CC4)CC3)nc21 (centres unmarked) [Compound 46] | 35 | 74 | 44 | 5 | –
CC1CCCC1N1C(=O)C2(CC2)c2cnc(NC3CCN(S(=O)(=O)C4CCCN(C(=O)CCCCCCCc5cccc6c5n(C)c(=O)n6C5CCC(=O)NC5=O)C4)CC3)nc21 (centres unmarked) [Compound 48] | 42 | 35 | 15 | – | –
CC1CCCC1N1C(=O)C2(CC2)c2cnc(NC3CCN(S(=O)(=O)N4CC(N(C)C(=O)CCCCCCCCCc5cccc6c5n(C)c(=O)n6C5CCC(=O)NC5=O)C4)CC3)nc21 (centres unmarked) [Compound 49] | 8 | 62 | 66 | 34 | 6.53
CC1CCCC1N1C(=O)C2(CC2)c2cnc(NC3CCN(S(=O)(=O)C4CCN(C(=O)CCCCCCCCCc5cccc6c5n(C)c(=O)n6C5CCC(=O)NC5=O)C4)CC3)nc21 (centres unmarked) [Compound 53] | 46 | 62 | 36 | 10 | –
CC1CCCC1N1C(=O)C2(CC2)c2cnc(NC3CCN(S(=O)(=O)N4CC5CN(C(=O)CCc6ccc7c(c6)n(C)c(=O)n7C6CCC(=O)NC6=O)CC5C4)CC3)nc21 (centres unmarked) [Compound 55] | 13 | 25 | 8 | – | –
CC1CCCC1N1C(=O)C2(CC2)c2cnc(NC3CCN(S(=O)(=O)N4CCC5(CCCN5C(=O)CCc5ccc6c(c5)n(C)c(=O)n6C5CCC(=O)NC5=O)C4)CC3)nc21 (centres unmarked) [Compound 56] | 19 | 41 | 15 | – | –
CC1CCCC1N1C(=O)C2(CC2)c2cnc(NC3CCN(S(=O)(=O)N4CC5(CCCN(C(=O)CCc6ccc7c(c6)n(C)c(=O)n7C6CCC(=O)NC6=O)C5)C4)CC3)nc21 (centres unmarked) [Compound 57] | 22 | 53 | 15 | – | –
CC1CCCC1N1C(=O)C2(CC2)c2cnc(NC3CCN(S(=O)(=O)N4CC5(CN(C(=O)CCc6ccc7c(c6)n(C)c(=O)n7C6CCC(=O)NC6=O)C5)C4)CC3)nc21 (centres unmarked) [Compound 58] | 10 | 12 | 9 | – | –
CC1CCCC1N1C(=O)C2(CC2)c2cnc(NC3CCN(S(=O)(=O)N4CC5(CCN(C(=O)CCc6ccc7c(c6)n(C)c(=O)n7C6CCC(=O)NC6=O)CC5)C4)CC3)nc21 (centres unmarked) [Compound 59] | 24 | 46 | 17 | – | –

More lines, now with the values ahead:

CCNE1 HIBIT Protein Quantification Maximum [1] [%] | CDK2 HIBIT Protein Quantification Maximum [2] [%] | Dmax [3] [%] | DC50 [2] [nM] | DC50 [3] [nM] | SMILES
21 | 34 | 17 | – | – | CC1CCCC1N1C(=O)C2(CC2)c2cnc(NC3CCN(S(=O)(=O)N4CCCC45CCN(C(=O)CCCCCc4cccc6c4n(C)c(=O)n6C4CCC(=O)NC4=O)C5)CC3)nc21 (centres unmarked) [Compound 35]
30 | 40 | 0 | – | – | CC1CCCC1N1C(=O)C2(CC2)c2cnc(NC3CCN(S(=O)(=O)N4CC5(CCCCN5C(=O)CCCCCc5cccc6c5n(C)c(=O)n6C5CCC(=O)NC5=O)C4)CC3)nc21 (centres unmarked) [Compound 37]
46 | 71 | 57 | 4 | 23 | CC1CCCC1N1C(=O)C2(CC2)c2cnc(NC3CCN(S(=O)(=O)N4CCN(C(=O)CCCCCc5cccc6c5n(C)c(=O)n6C5CCC(=O)NC5=O)CC4)CC3)nc21 (centres unmarked) [Compound 38]
9 | 54 | 6 | 7 | – | CC1CCCC1N1C(=O)C2(CC2)c2cnc(NC3CCN(S(=O)(=O)N4CC5(CCCN(C(=O)CCCCCc6cccc7c6n(C)c(=O)n7C6CCC(=O)NC6=O)C5)C4)CC3)nc21 (centres unmarked) [Compound 39]
29 | 69 | 44 | 5 | – | CC1CCCC1N1C(=O)C2(CC2)c2cnc(NC3CCN(S(=O)(=O)N4CC5(CCN(C(=O)CCCCCc6cccc7c6n(C)c(=O)n7C6CCC(=O)NC6=O)CC5)C4)CC3)nc21 (centres unmarked) [Compound 40]
23 | 70 | 17 | 7 | – | CC1CCCC1N1C(=O)C2(CC2)c2cnc(NC3CCN(S(=O)(=O)N4CCC5(CCN(C(=O)CCCCCc6cccc7c6n(C)c(=O)n7C6CCC(=O)NC6=O)C5)C4)CC3)nc21 (centres unmarked) [Compound 42]
62 | 60 | 32 | 16 | – | CC1CCCC1N1C(=O)C2(CC2)c2cnc(NC3CCN(S(=O)(=O)N4CCCN(C(=O)CCCCCc5cccc6c5n(C)c(=O)n6C5CCC(=O)NC5=O)CC4)CC3)nc21 (centres unmarked) [Compound 43]
18 | 44 | 10 | – | – | CC1CCCC1N1C(=O)C2(CC2)c2cnc(NC3CCN(S(=O)(=O)N4CCC5(CCN(C(=O)CCCCCCCc6cccc7c6n(C)c(=O)n7C6CCC(=O)NC6=O)C5)C4)CC3)nc21 (centres unmarked) [Compound 47]
16 | 37 | 17 | – | – | CC1CCCC1N1C(=O)C2(CC2)c2cnc(NC3CCN(S(=O)(=O)N4CC5(CCCN(C(=O)CCCCCCCCCc6cccc7c6n(C)c(=O)n7C6CCC(=O)NC6=O)C5)C4)CC3)nc21 (centres unmarked) [Compound 50]
40 | 56 | 41 | 53 | – | CC1CCCC1N1C(=O)C2(CC2)c2cnc(NC3CCN(S(=O)(=O)N4CC5(CCN(C(=O)CCCCCCCCCc6cccc7c6n(C)c(=O)n7C6CCC(=O)NC6=O)CC5)C4)CC3)nc21 (centres unmarked) [Compound 51]
19 | 56 | 29 | 2 | – | CC1CCCC1N1C(=O)C2(CC2)c2cnc(NC3CCN(S(=O)(=O)N4CCC5(CCN(C(=O)CCCCCCCCCc6cccc7c6n(C)c(=O)n7C6CCC(=O)NC6=O)C5)C4)CC3)nc21 (centres unmarked) [Compound 52]
